# Source: US20240309360A1, “TRANS-ACTIVATORS AND METHODS AND USE THEREOF” (THE GOVERNING COUNCIL OF THE UNIVERSITY OF TORONTO, priority 2021, published 2024)
# Tests used:
# Type in all cases: cell-based, human
# [1] = tested on: transcriptional activity of 83 transcriptional regulators on the EGFP reporter; assay: Tethered reporter assays in the presence of inhibitors; details: for effect of inhibitor on activity of the activators: 100 nM flavopiridol, 300 nM JQ1, 1 μM A-485, 2.5 μM CX-4945, 3 μM AZ191, 100 μM ABA 48 hours; for effect of inhibitor on activity of NuA4 complex interactors: 1 μM A-485 or 300 nM JQ1, e.g; call rule not given here. JAZF1 and KLF6
# Description: To functionally investigate the connection between transcriptional activators and co-factors, a panel of 83 robust activators was arrayed. Their activation potential was tested using the reporter assay, but now in the presence of small-molecule inhibitors targeting multiple transcriptional co-regulators. Three kinase inhibitors targeting transcriptional kinases (flavopiridol for CDK9, CX-4945 for casein kinase 2, and AZ191 for DYRK1A and DYRK1B), and two compounds inhibiting transcriptional co-factors (A-485 for CBP/p300, and JQ1 for BET family bromodomain proteins) were employed.
# (§1) Arrayed recruitment assays. Reporter cells stably co-expressing ABI-dCas9 and TetO gRNA were seeded either on 48-well or 96-well plates (Sarstedt) to reach 50-70% confluency on the day of transfection. 150 ng of each construct to be tested was transfected with polyethylenimine (PEI) at a ratio of 0.6 μl reagent. The day after transfection, recruitment was induced by treatment with ABA (100 μM). […] Inhibitors were dissolved in DMSO to a stock concentration of 10 mM. The final concentrations used were 100 nM for flavopiridol, 300 nM for JQ1, 1 μM for A-485, 2.5 μM for CX-4945 and 3 μM for AZ191. All inhibitors were a kind gift from the Structural Genomics Consortium (SGC). 48 hours after induction, cells were dissociated and resuspended in flow buffer using a liquid handing robot (TECAN) and analyzed by LSR Fortessa (BD). Cells were gated on high EBFP2 and RFP as a measure of gRNA and transfection control, respectively. Flow cytometry data was analyzed using FlowJo (v10).
# [2] = tested on: EGFP reporter (7×TetO array, basal CMV promoter) in HEK293T reporter cell line; assay: TAD-seq pooled activation screen of 60-aa fragments fused to PYL1; details: for Hit high GFP: high GFP population (top 1%); for logFC high GFP / logFC medium GFP: log 2 fold change of counts, 100 μM ABA 48 hours; for logFC high GFP: sorted high GFP cells (top 1%) vs unsorted cells; for logFC medium GFP: sorted medium GFP cells (top 2-5%) vs unsorted cells; for Hit medium GFP: medium GFP population (top 2-5%)
# Method in brief: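 60-aa tiles at 20-aa steps from 75 activator proteins, C-terminally fused to PYL1, lentivirally transduced at low MOI into reporter cells co-expressing ABI-dCas9 and promoter gRNA. Recruitment induced with 100 μM abscisic acid for 48 h (DMSO control). Top 1% and next 4% GFP cells sorted; fragments quantified by sequencing, two replicates.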
# [3] = tested on: EGFP reporter (TetO7) in HEK293T cells; assay: Multi-TAD effectors fused to PYL1 recruited to EGFP reporter; details: PYL1 fusion, 1 μM abscisic acid, 24 or 48 hours
# Description: Multiple TADs were fused together with PYL1 and tested for transcriptional activity using the PYL1-ABI EGFP reporter system described above. The following TAD fragments were used: CITED1-8 (SEQ ID NO: 47), CITED2-12 (SEQ ID NO: 49), C3orf62-12 (SEQ ID NO: 45), BRD8-25 (SEQ ID NO: 40), ZXDC-12 (SEQ ID NO: 97), KLF7-1 (SEQ ID NO: 72), ATXN7L3-1 (SEQ ID NO: 35), FAM90A1-20 (SEQ ID NO: 60), SPDYE4-3 (SEQ ID NO: 90), YAF2-7 (SEQ ID NO: 96).
# Methods: Cells were seeded on 48-well plates. Next day, after cells were between 70-90% confluent, 250 ng of each construct was transfected in each well using (Thermo Fisher Scientific, 11668019) reagent. Each construct was either directly fused TagRFP either directly fused to each component or being co-expressed from the same plasmid was used as a measure of transfection. In each experiment, the same gate for RFP+ cells were used to control for the effect of each construct's expression levels on activity. EGFP reporter cells were expanded from a clonal line to control for level of ABI-dCas9 and gRNA targeting the TetO7 sites upstream of the promoter. For the CD133 induction experiment, a 293T cell line stably expressing ABI-dCas9 and a pool of 5 gRNAs targeting the promoter were used for all activators. CD133 antibody conjugated to APC (Miltenyi Biotec, 130-113-668) was used. […]
# [4] = tested on: EGFP reporter (7×TetO array, basal CMV promoter) in HEK293T reporter cell line; assay: Arrayed recruitment assay, PYL1 fusions individually recruited to reporter via ABI1-dCas9 with ABA; design: key to independently validated as transactivating fragment: Fragments marked with * were independently validated; details: for independently validated as transactivating fragment: fragment fused to PYL1, arrayed format
# Excerpt: Treatment of cells with abscisic acid (ABA) induces an interaction between ABI1 and PYL1, thereby recruiting the potential transcriptional activator to a specific genomic locus defined by the guide RNA (gRNA). As a reporter, a HEK293T cell line that contains a stably integrated construct with a 7×TetO array and a basal CMV promoter driving the expression of EGFP was used (Gao et al., 2016). A monoclonal cell line that expresses ABI1-dCas9 and a single gRNA targeting TetO was generated by lentiviral infection.
# as §1
Molecule,effect of inhibitor on activity of the activators [1],Hit high GFP [2],logFC high GFP [2],logFC medium GFP [2],Hit medium GFP [2],independently validated as transactivating fragment [4],also measured
COc1cc(N2CCN(C)CC2)ccc1Nc1nccc(-c2cn(C)c3cnccc23)n1 [AZ191],slightly attenuating the activity of most activators,,,,,,effect of inhibitor on activity of DCAF7 and NCKIPSD ([1]; 3 μM AZ191): not affected
"CNC(=O)Nc1ccc2c(c1)CC[C@@]21OC(=O)N(CC(=O)N(Cc2ccc(F)cc2)[C@@H](C)C(F)(F)F)C1=O [Fragment A-485, A-485]",strongly affected the activity of some but not all transactivators,,,,,,"effect of inhibitor on activity of CBP/p300 non-interactors ([1]; 1 μM A-485): only one of the seven non-interactors was affected; effect of inhibitor on activity of KLF6 ([1]; 1 μM A-485): no effect; effect of inhibitor on activity of KLF15 ([1]; 1 μM A-485): inhibited the activity of KLF15; effect of inhibitor on activity of CBP/p300 interactors ([1]; 1 μM A-485, interactors by AP-MS and BioID): four of the six CBP/p300 interactors was significantly decreased; effect of inhibitor on activity of NuA4 complex interactors [1]: not significantly affected; sensitivity of C3orf62-Cterm and SRF-C3orf62 reporter activation to inhibitor ([1]; CBP/p300 inhibition): highly sensitive"
Cc1sc2c(c1C)C(c1ccc(Cl)cc1)=N[C@@H](CC(=O)OC(C)(C)C)c1nnc(C)n1-2 [JQ1],increase in reporter gene activity,,,,,,effect of inhibitor on activity of NuA4 complex interactors [1]: not affected
CN1CC[C@H](c2c(O)cc(O)c3c(=O)cc(-c4ccccc4Cl)oc23)[C@H](O)C1 [flavopiridol],nearly complete loss of activity of all activators,,,,,,
SPDYE4-3: 60-aa TAD-seq fragment of SPDYE4; SPDYE4 activation domain (DPSPQPQSLGLKRKSEWSDESEEELEEELELERAPEPEDTWVVETLCGLKMKLKRKRASS; listed as Homo sapiens),,hit,4.82,2.409,hit,3*,transcriptional activation of EGFP reporter by TAD fusions [3]: weak activity
"VP64: synthetic transactivator, four tandem copies of the viral VP16 transactivation motif (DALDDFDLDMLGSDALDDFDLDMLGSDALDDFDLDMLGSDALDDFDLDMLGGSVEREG; listed as Homo sapiens) [reference compound]",,hit,5.476,2.374,,,"enrichment compared to the unsorted fragment library ([2]; high GFP and medium GFP populations): enriched in the high GFP population but depleted in the medium GFP population; activation of the EGFP reporter when individually tested ([4]; PYL1 fusion, ABA 48 hours, flow cytometry): robust induction of GFP"
YAF2-7: 60-aa TAD-seq fragment of YAF2 (SHKKTRPRLKNVDRSSAQHLEVTVGDLTVIITDFKEKTKSPPASSAASADQHSQSGSSSD; listed as Homo sapiens),,hit,4.987,1.828,hit,YAF2-7*,
ZXDC-12: 60-aa TAD-seq fragment of ZXDC (SPAEQHGAQDTELSAGTGNFYLESGGSARTDYRAIQLAKEKKQRGAGSNAGASQSTQRKI; listed as Homo sapiens),,hit,3.966,2.496,hit,ZXDC-12*,
